{"source": "patent US20210275516A1", "about": "“LACTATE ENHANCING COMPOUNDS AND USES THEREOF” (ECOLE POLYTECHNIQUE FEDERALE DE LAUSANNE (EPFL), priority 2018, published 2021)", "key": {"[1]": {"test_system": "primary cultures of cerebrocortical astrocytes", "experiment": "Extracellular lactate quantification (lactate release from primary astrocytes)", "type": "cell-based", "conditions": "primary mouse astrocytes, 90 min", "protocol": "(§1) Primary cultures of cerebrocortical astrocytes were obtained from 1 to 2-day-old OF1 mouse pups (Charles River). Briefly, cortices were isolated and minced in small pieces under a dissecting microscope. The cells were incubated for 30 min at 37° C. in a solution containing 20 U/ml papain, 1 mM L-cysteine and 10 kU/ml DNase I. After dissociation, papain activity was stopped by the addition of fetal calf serum (FCS). Single-cell suspension was then obtained by mechanical dissociation, which consisted in cells trituration in a DMEM D7777 medium supplemented with 44 mm NaHCO3, 10 ml/L antibiotic/antimycotic solution and 10% FCS. […]\nSecretion of L-lactate was measured in the extracellular medium of 96-well plated astrocytes after 90 min stimulation (at 37° C., in 5% CO2/95% air conditions) with Vehicle (DMSO), the compounds of the invention (100 nM to 100 μM) or positive control. […] To quantify lactate concentrations in the extracellular medium, 200 μl of a 0.2M Glycine-semicarbazide buffer (pH 10) containing 3 mM NAD and 14 U/ml LDH was added to each well of a 96-well plate containing 30 μl aliquots of extracellular medium. […] Fluorescence intensity (340 nm excitation/450 nm emission), which represents the amount of NADH produced, was measured, and lactate concentration values were determined relative to a standard curve of L-lactate concentrations. […]"}, "[2]": {"test_system": "primary astrocytes", "experiment": "Intracellular glycogen quantification in astrocytes", "type": "cell-based, mouse", "conditions": "10 μM, 3 h, vs vehicle", "protocol": "as §1\nAstrocytes grown on 12-well plates were used for intracellular glycogen quantifications. […]\nFirst, the amount of proteins in each sample was quantified to assess whether harvested astrocytes from primary cell cultures yielded enough and equivalent amounts of proteins on each replicates. Proteins were quantified using the micro BCA Protein Assay kit (Thermo Scientific), according to manufacturer's instructions. Next, intracellular glycogen concentrations were quantified using a 250 μl-aliquot of the same stimulated, thawed, and sonicated cell lysate. […] Fluorescence intensity (340 nm excitation/440 nm emission) was measured using a Safire 2 spectrophotometer. […]"}, "[3]": {"test_system": "primary astrocytes", "experiment": "MTT mitochondrial activity assay in astrocytes", "type": "cell-based, mouse", "conditions": "24 h, maximum concentration (200 μM)", "protocol": "Primary cultures of cerebrocortical astrocytes were obtained from 1 to 2-day-old OF1 mouse pups (Charles River). Briefly, cortices were isolated and minced in small pieces under a dissecting microscope. The cells were incubated for 30 min at 37° C. in a solution containing 20 U/ml papain, 1 mM L-cysteine and 10 kU/ml DNase I. After dissociation, papain activity was stopped by the addition of fetal calf serum (FCS). Single-cell suspension was then obtained by mechanical dissociation, which consisted in cells trituration in a DMEM D7777 medium supplemented with 44 mm NaHCO3, 10 ml/L antibiotic/antimycotic solution and 10% FCS. The cells were seeded at an average density of 6×10^4 cells/cm^2 on poly-D-lysine-coated 96- or 12-well culture plates, depending on their use, and grown in DMEM D7777 medium supplemented with 44 mm NaHCO3, 10 ml/L antibiotic/antimycotic solution and 10% FCS at 37° C. in a humidified atmosphere containing 5% CO2/95% air. Culture medium was renewed twice a week. Cells were stimulated and harvested between DIV14 and DIV17, when confluence and cell growth were optimal.\nTo monitor mitochondrial activity in astrocytes, which is linked to the metabolic process of glycolysis and production of lactate, astrocytes in 96-well plates were stimulated for 24 h (37° C. 5% CO2/95% air) with the compounds of the invention ranging from 0.2 to 200 μM. After stimulation, 5 mg/ml thiazol blue tetrazolium bromide (MTT) in D5030 medium complemented with 5 mM D-glucose and 44 mM sodium bicarbonate (pH 7.2) was added to each well, and cells were incubated for 4 h at 37° C. (5% CO2). The medium was then removed and the amount of reduced MTT, i.e formazan, solubilized in DMSO (50 μl/well) was determined using a spectrophotometer (absorbance of 570 nm).\nThe mitochondrial activity in primary astrocytes treated with Compounds (2) to (4) at concentrations ranging from 1 nM to 200 μM. After 24 h, mitochondrial activity was monitored in MTT colorimetric assay as described above (FIG. 3)."}, "[4]": {"test_system": "cerebral extracellular levels of lactate", "experiment": "In vivo pharmacodynamics - lactate biosensors", "design": "species or system mouse", "conditions": "3 h recording, freely moving mice, vs vehicle", "protocol": "(§2) For pharmacodynamics (FIG. 4) and cognition (FIG. 6) experiments, adult male C57Bl/6J wild-type mice weighting 18-28 g (8 weeks of age) were used (Charles River). For ALS mouse models (FIG. 5), G93A SOD1 transgenic male and female mice on B6.SJL1-Gur/J background were used (Jackson Laboratory).\n(§3) Animals were housed in groups of 3-5 in polypropylene cages (30×40×15 cm) with wire mesh top in a temperature (22±2° C.) and humidity (55±15%) controlled environment on a 12 hour light cycle (07.00-19.00 h lights on), except after surgeries when animal were housed individually. […]\nCerebral extracellular levels of lactate were monitored in vivo using lactate biosensors (Pinnacle Technology), according to the manufacturer's instructions. […] After surgery, mice were monitored closely and received analgesic treatment for at least 4 days. […] Concentrations of cerebral extracellular lactate were calculated from lactate probe electric signals using post-calibration values. […] Area Under the Curve (AUC) of lactate concentration curves were calculated using Graphad Prism and the ratio of AUC after drug over Vehicle administration was calculated."}, "[5]": {"test_system": "G93A SOD1 mouse model of ALS", "experiment": "SOD1 G93A mouse ALS model - grip test", "type": "in vivo", "conditions": "vs vehicle", "protocol": "as §2, §3\n(§4) Transgenic mice on B6.SJL1-Gur/J background overexpressing the human mutated gene G93A SOD1 were used. […] F1 pups were genotyped after ear punching at weaning, using quantitative PCR (qPCR), which allowed determining the number of SOD1 copies in each mouse.\n(§5) To test for the potential therapeutic effect of the administered compound, SOD1 mice were given orally the compound of the invention (10 mg/kg) or vehicle every day from post-natal day 30 (weaning) throughout their entire life. […] Each mouse's weight was recorded every day throughout the entire treatment, while neuromuscular function was measured once a week. […]"}, "[6]": {"test_system": "G93A SOD1 mouse model of ALS", "experiment": "SOD1 G93A mouse ALS model - survival", "type": "in vivo", "conditions": "10 mg/kg orally every day from post-natal day 30 to final stage, G93A SOD1 mice, vs vehicle", "protocol": "as §2, §3, §4, §5"}, "[7]": {"test_system": "C57Bl/6 wild-type mice", "experiment": "Long-term memory test - inhibitory avoidance (IA)", "type": "in vivo, mouse", "conditions": "100 mg/kg oral single dose 20 min before training", "protocol": "as §2\nAnimals were housed in groups of 3-5 in polypropylene cages (30×40×15 cm) with wire mesh top in a temperature (22±2° C.) and humidity (55±15%) controlled environment on a 12 hour light cycle (07.00-19.00 h lights on), except after surgeries when animal were housed individually. The samples (Vehicle or compounds of the invention) were administered per os (gavage) in a solution made of water supplemented with 0.4% hydroxypropyl methylcellulose (HPMC) Methocel 4KM (w/v) and 0.25% Tween-20 (v/v), as previously described (Thackaberry et al., 2010, Toxicol Sci., 117(2):485-92). Concentrations of the compounds tested ranged from 10 to 100 mg/kg.\nIA test is a well-established memory paradigm in rodents that measures contextual memory associated with a mild electrical footshock in a specific context (the dark compartment of the IA chamber). Groups of 8-week old C57Bl/6 wild-type […] mice were tested. Each mouse was handled for 5 minutes per day for at least 4 consecutive days to reduce animal's stress due to experimenter's presence/manipulation during test days. Inhibitory avoidance was carried out in an IA chamber (MedAssociates) that consists in a rectangular Perspex box divided into a safe and a shock compartment separated by an automatically operated sliding door. The safe compartment is white and illuminated while the shock compartment is black and dark. Mice were trained for IA 20 min after oral administration of the drug or vehicle. During training, mice were placed into the safe compartment with their heads facing away from the door. […] Memory retention was measured at 24 h or 3 weeks after training by placing the mouse back into the lit compartment and recording its latency (in seconds) to enter the dark compartment. […]"}}, "data": [{"smiles": "COc1cc2ccnc(Nc3ccc(OC(F)(F)F)cc3)c2cc1OC", "note": "[Compound 1, 6,7-dimethoxy-N-(4-(trifluoromethoxy)phenyl)isoquinolin-1-amine]", "values": [{"measurement": "Concentration at which the effect on lactate release is already significant", "setting": "[1]", "value": "below 1 μM"}, {"measurement": "Degradation of intracellular glycogen", "setting": "[2]", "value": "significantly enhances the degradation of intracellular glycogen"}, {"measurement": "Remaining mitochondrial activity at maximum concentration compared to vehicle", "setting": "[3]", "value": 8.05, "unit": "%"}, {"measurement": "Extracellular lactate levels in the brain", "setting": "[4]; 10 mg/kg per os", "value": "significantly increases extracellular lactate levels"}, {"measurement": "Extracellular lactate levels in the brain", "setting": "[4]; 100 mg/kg per os", "value": "significantly increases extracellular lactate levels"}, {"measurement": "Onset of symptoms (grip test)", "setting": "[5]; 10 mg/kg orally every day from post-natal day 30, G93A SOD1 mice", "value": "delayed the onset of the symptoms"}, {"measurement": "Muscle function (grip test)", "setting": "[5]; 10 mg/kg orally every day from post-natal day 30, measured weekly until 16 weeks of age", "value": "remained significantly improved"}, {"measurement": "Life span (Kaplan-Meier survival)", "setting": "[6]", "value": "significantly increased life span"}, {"measurement": "Latency to enter the dark compartment at training", "setting": "[7]", "value": "same latencies at training"}, {"measurement": "Latency to enter the dark compartment, 3 weeks after training", "setting": "[7]; vs vehicle", "value": "significantly higher"}, {"measurement": "Latency to enter the dark compartment, 24 h after training", "setting": "[7]; vs vehicle", "value": "significantly higher"}]}, {"smiles": "COc1cc2ccnc(Nc3ccc(C(F)(F)F)cc3)c2cc1OC", "note": "[Compound 2, 6,7-dimethoxy-N-(4-(trifluoromethyl)phenyl)isoquinolin-1-amine]", "values": [{"measurement": "Remaining mitochondrial activity at maximum concentration compared to vehicle", "setting": "[3]", "value": 7.86, "unit": "%"}]}, {"smiles": "FC(F)(F)Oc1ccc(Nc2nccc3ccccc23)cc1", "note": "[Compound 3, N-(4-(trifluoromethoxy)phenyl)isoquinolin-1-amine]", "values": [{"measurement": "Remaining mitochondrial activity at maximum concentration compared to vehicle", "setting": "[3]", "value": 35.9, "unit": "%"}]}, {"smiles": "COc1cc2ccnc(Cc3ccc(OC(F)(F)F)cc3)c2cc1OC", "note": "[Compound 4, 6,7-dimethoxy-1-(4-(trifluoromethoxy)benzyl)isoquinoline]", "values": [{"measurement": "Remaining mitochondrial activity at maximum concentration compared to vehicle", "setting": "[3]", "value": 77.3, "unit": "%"}]}]}
